System: aged-impaired (AI) rats
Experiment: Radial Arm Maze (RAM) behavioral task, spatial memory retention
Type: in vivo, rat
Conditions: 3 mg/kg i.p., two-hour delay RAM
Description: The effects of methyl 3,5-diphenylpyridazine-4-carboxylate on the in vivo spatial memory retention of aged-impaired (AI) rats were assessed in a Radial Arm Maze (RAM) behavioral task using vehicle control and four different dosage levels of methyl 3,5-diphenylpyridazine-4-carboxylate (0.1 mg/kg, 0.3 mg/kg, 1 mg/kg and 3 mg/kg, ip). RAM behavioral tasks were performed on eight AI rats. All five treatment conditions (vehicle and four dosage levels) were tested on all eight rats.
The RAM apparatus used consisted of eight equidistantly-spaced arms. An elevated maze arm (7 cm width×75 cm length) projected from each facet of an octagonal center platform (30 cm diameter, 51.5 cm height). Clear side walls on the arms were 10 cm high and were angled at 65° to form a trough. A food well (4 cm diameter, 2 cm deep) was located at the distal end of each arm. Froot Loops™ (Kellogg Company) were used as rewards. Blocks constructed of Plexiglas™ (30 cm height×12 cm width) could be positioned to prevent entry to any arm. Numerous extra maze cues surrounding the apparatus were also provided.
The AI rats were initially subjected to a pre-training test (Chappell et al. Neuropharmacology 37: 481-487, 1998). The pre-training test consisted of a habituation phase (4 days), a training phase on the standard win-shift task (18 days) and another training phase (14 days) in which a brief delay was imposed between presentation of a subset of arms designated by the experimenter (e.g., 5 arms available and 3 arms blocked) and completion of the eight-arm win-shift task (i.e., with all eight arms available).
In the habituation phase, rats were familiarized to the maze for an 8-minute session on four consecutive days. In each of these sessions, food rewards were scattered on the RAM, initially on the center platform and arms and then progressively confined to the arms. After this habituation phase, a standard training protocol was used, in which a food pellet was located at the end of each arm. Rats received one trial each day for 18 days. Each daily trial terminated when all eight food pellets had been obtained or when either 16 choices were made or 15 minutes had elapsed. After completion of this training phase, a second training phase was carried out in which the memory demand was increased by imposing a brief delay during the trial. At the beginning of each trial, three arms of the eight-arm maze were blocked. Rats were allowed to obtain food on the five arms to which access was permitted during this initial “information phase” of the trial. Rats were then removed from the maze for 60 seconds, during which time the barriers on the maze were removed, thus allowing access to all eight arms. […]

Compound: COC(=O)c1c(-c2ccccc2)cnnc1-c1ccccc1 [methyl 3,5-diphenylpyridazine-4-carboxylate]
- average no. of errors ± SEM in retention test: 1.31±0.40
- memory performance relative to vehicle control: significantly improved memory performance

Reference: US9145372B2, “Pyridazine derivatives, compositions and methods for treating cognitive impairment” (AGENEBIO, INC., priority 2010, dated 2015)
